From US7157092B1, “Acyl pseudodipeptides, preparation method and pharmaceutical compositions containing same” (Om Pharma, priority 1998, dated 2007)
Values joined by “and” are separate entries in the source; they are usually repeats but may differ in a detail not shown here. Equal entries are not always repeated.

Test system: TT antigen
Experiment: Subcutaneous immunization with TT antigen (tetanos toxoid): specific serum immunoglobulins (ELISA)
Assay type: in vivo, BALB/c mice
Conditions: for adjuvant effect on titer of IgG1 and IgG2a antibodies specifically raised against TT: after one or two injections, FIGS. 28, 29; for Titer of immunoglobulins specifically directed against TT of IgM subclass (number of animals and dilution): dilution giving signal at 490 nm greater than mean ± 3 SD of group A; for Immunoglobulins specifically raised against TT of IgG1 subclass / Immunoglobulins specifically raised against TT of IgG2a subclass: s.c. injections days 0 and 14, adjuvant 50 μg per injection, ± SD
Protocol: To this end, 40 BALB/c mice (females, 8 weeks-old at the beginning of treatment) are divided into 4 groups as follows:
Antigen: A TT stock solution is prepared at a concentration of 0.2 mg/ml in 0.9% NaCl.
The negative control consists of a 0.9% NaCl solution without antigen.
Antigen-Adjuvant mixture: Adjuvants are allowed to stand for 20 minutes at 37° C. before vortex treatment for 3 minutes. Then the antigen and (0.9%) NaCl are added as specified in the above Table, and the antigen/adjuvant mixture is vortexed briefly before placing it on a rotary stirrer for 15 minutes at room temperature, then the whole mixture is vortexed for 3 minutes.
Immunization regimen: Injections are scheduelled on days 0 and 14. The mixtures stated in the preceeding table are administered by subcutaeous route (75 μl on the side, 150 μl in total per animal). Blood sampling is scheduelled on days 14 and 28 (orbital puncture).
Assay for anti-TT immunoglobulins: The following serum Immunolglobulins which are specifically directed against TT are assayed in duplicate by ELISA: IgG1, IgG2a, and IgM. Microtiter plates (NUNC Immunoplate, Roskilde, DK) are incubated (overnight coating) at 4° C. together with 100 μl TT (0.5 μg) in bicarbonate buffer (pH 9.6). After washing with 0.5% Tween-20 (Merck Hohenbrunn, D), sera are diluted 50-, 200- and 800-fold (diluting solution: phosphate buffered saline (PBS)+1% bovine serum albumin (BSA, Sigma, St. Louis, Mo., USA)+0.02% Tween-20)). 100 μl of each dilute serum sample are added to the wells. Incubation lasts 45 minutes at 37° C.
After a second washing step, IgG1, IgG2a and IgM specifically directed to ovalbumin are incubated for 30 minutes at 37° C. together with 100 μl of anti-IgG1 antibodies-peroxydase conjugate (Serotec, Oxford, UK), IgG2a-peroxydase conjugate (Pharmingen, San Diego, Calif., USA) and IgM-biotin conjugate (Pharmingen, San Diego, Calif., USA), diluted beforehand in PBS/BSA/Tween buffer (250-, 1000-, 500-fold dilutions, respectively). For IgM, after an extra washing step, a 3rd incubation step is required (30 min. at 37° C.) with a 1:100 dilute solution of streptavidin-peroxydase conjugate (Dako, Glostrup, DK).
After the washing step, 100 μl of a phenylene 1,2-diamine solution (OPD, Merck, Darmstadt, GFR) are added to detect peroxydase-coupled anti-IgG1 and anti-IgG2 secondary antibodies (whereas for IgM, the reagent being used is 3′, 3′, 5′,5′-tetramethylbenzidine (TMB, Sigma, St. Louis, Mo., USA). After a 20 minute incubation period at room temperature (40 min. for TMB), the reaction is stopped by adding 100 μl of 2N H2SO4. Absorbance values are read at 490 nm with a Bio-Rad 3550 model plate reader
Results of each reading at 490 nm when measuring IgG1 and IgG2a are given in arbitrary units (A.U.) per ml. This is achieved by comparing each sample with a standard prepared from different dilutions of a sample pool collected from the group B at day 28 (animals injected with TT alone). As this term implies, the sample pool diluted 50-fold is at a concentration of 1000 A.U./ml. Individual results are then corrected for the corresponding dilution factor (50, 200, or 800 fold). Only the mean values of each group and the standard deviation (SD) are herein reported.
Regarding the assay of IgM specific for TT, since the “background noise” of the assay was too high, no clear cut difference could be found between group B (TT alone) and groups C and D (TT with adjuvant) by measuring specific IgM as previously done for IgG1 and IgG2a. Instead, specific IgM titer could be determined, using successive dilutions of each sample (rather than A.U. described before) and the result was reported, for each sample, as the highest dilution which gives an absorbance reading greater than mean absorbance±3 SD for group A (NaCl).

Compound	adjuvant effect on titer of IgG1 and IgG2a antibodies specifically raised against TT	Titer of immunoglobulins specifically directed against TT of IgM subclass (number of animals and dilution) (Day 14)	Immunoglobulins specifically raised against TT of IgG1 subclass (Day 14) [Arbitrary units/ml]	Immunoglobulins specifically raised against TT of IgG2a subclass (Day 14) [Arbitrary units/ml]	Titer of immunoglobulins specifically directed against TT of IgM subclass (number of animals and dilution) (Day 28) [animals < 25]	Immunoglobulins specifically raised against TT of IgG1 subclass (Day 28) [Arbitrary units/ml]	Immunoglobulins specifically raised against TT of IgG2a subclass (Day 28) [Arbitrary units/ml]
CCCCCCCCCCCC(=O)O[C@H](CCCCCCCCCCC)CC(=O)NC(CCOP(=O)(O)O)C(=O)NCCCC(COP(=O)(O)O)NC(=O)C[C@H](O)CCCCCCCCCCC (stereo partly drawn) [OM-294-DP, 3-[(R)-3-dodecanoyloxytetradecanoylamino]-4-oxo-5-aza-9-[(R)-3-hydroxytetradecanoylamino]decan-1,10-diol 1, 10-bis(dihydrogenphosphate)]	often significantly increase the titer of IgG1 and IgG2a antibodies	–	–	–	–	–	–
CCCCCCCCCCCC(=O)O[C@H](CCCCCCCCCCC)CC(=O)NC(CCOP(=O)(O)O)C(=O)NCCCC(CO)NC(=O)C[C@H](O)CCCCCCCCCCC (stereo partly drawn) [OM-294-MP, 3-[(R)-3-dodecanoyloxytetradecanoylamino]-4-oxo-5-aza-9-[(R)-3-hydroxytetradecanoylamino]-decane-1,10-diol 1-dihydrogenphosphate]	often significantly increase the titer of IgG1 and IgG2a antibodies	–	–	–	–	–	–
TT: TT antigen (tetanos toxoid, Massachussetts Biologic Laboratoires), injected alone	–	9 animals < 25 and 1 animal < 50	2871 ± 1633	2547 ± 2539	10	34367 ± 15018	61387 ± 82269
